# Test results reported in ChEMBL document CHEMBL3259572, “Euodenine A: a small-molecule agonist of human TLR4” (J Med Chem, 2014).
# Activity calls are given as the source filed them. The rule behind the calls is not given here.
# Key:
# Type in all cases: cell-based
# [1] = molecular target: T1, Toll-like receptor 4 (Homo sapiens, UniProt O00206); experiment: Intrinsic activity at human recombinant TLR4 expressed in HEK293 cells by SEAP reporter assay relative to LPS
# [2] = molecular target: T1, Toll-like receptor 4; experiment: Agonist activity at human recombinant TLR4 expressed in HEK293 cells by SEAP reporter assay
# [3] = molecular target: T1, Toll-like receptor 4; experiment: Agonist activity at human recombinant TLR4 expressed in HEK293 cells at 333 uM by SEAP reporter assay
# [4] = molecular target: T1, Toll-like receptor 4; experiment: Agonist activity at human recombinant TLR4 expressed in HEK293 cells at 30 uM by SEAP reporter assay
# [5] = molecular target: T1, Toll-like receptor 4; experiment: Agonist activity at human recombinant TLR4 expressed in HEK293 cells at 300 uM by SEAP reporter assay
# [6] = molecular target: T1, Toll-like receptor 4; experiment: Agonist activity at human recombinant TLR4 expressed in HEK293 cells at 25 uM by SEAP reporter assay
# [7] = molecular target: T1, Toll-like receptor 4; experiment: Agonist activity at human recombinant TLR4 expressed in HEK293 cells at 60 uM by SEAP reporter assay
# [8] = molecular target: T1, Toll-like receptor 4; experiment: Agonist activity at human recombinant TLR4 expressed in HEK293 cells at 71.5 uM by SEAP reporter assay
# T1 sequence (O00206 whole entry): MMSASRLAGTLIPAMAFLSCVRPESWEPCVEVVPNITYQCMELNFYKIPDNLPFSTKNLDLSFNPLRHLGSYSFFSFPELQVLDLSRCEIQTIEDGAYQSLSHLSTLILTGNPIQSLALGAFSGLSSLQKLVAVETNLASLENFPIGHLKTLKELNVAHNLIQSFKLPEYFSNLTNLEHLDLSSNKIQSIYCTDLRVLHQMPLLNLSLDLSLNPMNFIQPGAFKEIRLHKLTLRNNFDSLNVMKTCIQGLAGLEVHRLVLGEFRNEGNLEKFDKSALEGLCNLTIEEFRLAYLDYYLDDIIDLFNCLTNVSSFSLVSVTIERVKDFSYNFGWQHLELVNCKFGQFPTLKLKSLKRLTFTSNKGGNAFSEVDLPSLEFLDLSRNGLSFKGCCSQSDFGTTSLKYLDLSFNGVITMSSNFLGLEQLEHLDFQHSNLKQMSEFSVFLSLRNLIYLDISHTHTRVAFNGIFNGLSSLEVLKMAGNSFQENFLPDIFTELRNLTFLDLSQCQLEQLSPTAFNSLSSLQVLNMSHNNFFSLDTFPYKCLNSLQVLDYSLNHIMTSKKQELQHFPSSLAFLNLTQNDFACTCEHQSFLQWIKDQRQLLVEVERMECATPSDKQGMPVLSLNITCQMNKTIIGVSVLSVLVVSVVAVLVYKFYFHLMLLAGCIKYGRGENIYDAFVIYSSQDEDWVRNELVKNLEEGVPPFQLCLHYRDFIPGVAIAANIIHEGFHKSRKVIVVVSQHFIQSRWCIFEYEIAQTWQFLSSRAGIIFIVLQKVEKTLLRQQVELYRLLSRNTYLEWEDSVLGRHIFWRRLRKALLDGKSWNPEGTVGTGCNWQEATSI
Structure (SMILES),Intrinsic activity [1],EC50 [2] [µM],other results
"COc1cc(C2[C@@H](COC(C)=O)C3[C@@H]2c2c(c4ccccc4[nH]c2=O)OC3(C)C)cc(OC)c1OC (single isomer, unassigned)",0.1,5,–
CCC[C@]1(c2cc(OC)cc(OC)c2)O[C@H]2c3c(c4ccccc4[nH]c3=O)OC(C)(C)[C@H]2O1,0.7,3.1,–
CCCC[C@@H]1[C@@H](c2ccc(OC)c(OC)c2)[C@H]2c3c(c4ccccc4[nH]c3=O)OC(C)(C)[C@@H]12,1.01,1.2,–
CCOC(=O)[C@@H]1[C@@H](c2ccc(Br)cc2)[C@H]2c3c(c4ccccc4[nH]c3=O)OC(C)(C)[C@@H]12,–,–,Activity [3]: inactive
CC[C@@H]1[C@@H](c2ccc(OC)c(F)c2)[C@H]2c3c(c4ccccc4n(C)c3=O)OC(C)(C)[C@@H]12,0.36,3.1,–
COc1ccc2[nH]c(=O)c3c(c2c1)OC(C)(C)[C@H]1[C@H](C)[C@@H](c2cc(OC)c(OC)c(OC)c2)[C@@H]31,–,> 10,–
COc1ccc([C@@H]2[C@@H](C(=O)C3CC3)[C@H]3[C@@H]2c2c(c4ccccc4[nH]c2=O)OC3(C)C)cc1OC,0.62,7.9,–
COc1cc([C@H]2[C@H]3c4c(c5ccccc5[nH]c4=O)OC(C)(C)[C@H]3[C@@H]2C2CC2)cc(OC)c1OC,0.82,0.63,–
COc1cc([C@@H]2C[C@H]3[C@@H]2c2c(c4ccccc4[nH]c2=O)OC3(C)C)cc(OC)c1OC,–,–,Activity [4]: inactive
COc1ccc([C@H]2[C@H]3c4c(c5ccccc5[nH]c4=O)OC(C)(C)[C@H]3[C@@H]2C2CC2)cc1OC,0.75,0.63,–
"COc1cc([C@@H]2[C@@H](C)[C@@H]3C(C)Oc4c(c(=O)[nH]c5ccccc45)[C@H]23)cc(OC)c1OC (single isomer, unassigned)",–,> 10,–
COc1ccc([C@H]2[C@H]3c4c(c5ccccc5[nH]c4=O)OC(C)(C)[C@H]3[C@@H]2C(C)C)cc1OC,0.9,1,–
CC[C@@H]1[C@@H](c2cc(OC)c(OC)c(OC)c2)[C@H]2c3c(c4cc(C)ccc4n(C)c3=O)OC(C)(C)[C@@H]12,0.3,3.1,–
COc1ccc([C@H]2[C@H]3c4c(c5ccccc5n(C)c4=O)OC(C)(C)[C@H]3[C@@H]2C(C)C)cc1OC(C)=O,0.31,3.1,–
CC[C@@H]1[C@@H](c2ccc(OC)c(OC)c2)[C@H]2c3c(c4ccccc4n(C)c3=O)OC(C)(C)[C@@H]12,0.61,2,–
COc1cc([C@@H]2[C@@H](C)[C@H]3[C@@H]2c2c(c4ccccc4[nH]c2=O)OC3(C)C)ccc1OCc1ccccc1,–,–,Activity [5]: inactive
CC[C@@H]1[C@@H](c2ccc(OC)c(OC)c2)[C@H]2c3c(c4cc(C)ccc4n(C)c3=O)OC(C)(C)[C@@H]12,0.29,3.1,–
COc1cc([C@H]2[C@H]3c4c(c5ccccc5[nH]c4=O)OC(C)(C)[C@H]3[C@@H]2C2CCCC2)cc(OC)c1OC,0.63,0.63,–
COc1ccc([C@@H]2[C@@H](C)[C@H]3[C@@H]2c2c(c4ccccc4[nH]c2=O)OC3(C)C)cc1,–,> 10,–
COc1ccc([C@@H]2[C@@H](C)[C@H]3[C@@H]2c2c(c4ccccc4n(C)c2=O)OC3(C)C)cc1OC,0.64,2.5,–
COc1ccc([C@@H]2[C@@H](C)[C@H]3[C@@H]2c2c(c4ccccc4[nH]c2=O)OC3(C)C)c(OC)c1OC,–,> 10,–
"COC(=O)[C@@H]1C(c2cc(OC)c(OC)c(OC)c2)[C@H]2c3c(c4ccccc4[nH]c3=O)OC(C)(C)C12 (single isomer, unassigned)",–,–,Activity [6]: inactive
COc1ccc([C@@H]2[C@@H](C(C)=O)[C@H]3[C@@H]2c2c(c4ccccc4[nH]c2=O)OC3(C)C)cc1OC,0.3,10,–
COc1cc([C@@H]2[C@@H](C)[C@H]3[C@@H]2c2c(c4ccccc4[nH]c2=O)OC3(C)C)ccc1O,–,> 10,–
COc1cc([C@H]2[C@H]3c4c(c5ccccc5n(C)c4=O)OC(C)(C)[C@H]3[C@@H]2C2CC2)cc(OC)c1OC,0.81,0.79,–

Structure (SMILES),Intrinsic activity [1],EC50 [2] [µM],other results
COc1ccc([C@H]2[C@H]3c4c(c5ccccc5[nH]c4=O)OC(C)(C)[C@H]3[C@@H]2C(C)C)cc1CCl,0.2,2,–
COc1cc([C@H]2[C@H]3c4c(c5cc(C)ccc5n(C)c4=O)OC(C)(C)[C@H]3[C@@H]2C(C)C)cc(OC)c1OC,0.41,7.9,–
COc1ccc([C@H]2[C@H]3c4c(c5ccccc5[nH]c4=O)OC(C)(C)[C@H]3[C@@H]2C(C)C)cc1OC(=O)CCC(=O)O,0.29,6.3,–
COc1ccc([C@H]2[C@H]3c4c(c5ccccc5[nH]c4=O)OC(C)(C)[C@H]3[C@@H]2C2CC2)cc1OCCCO,0.88,0.79,–
COc1cc([C@H]2[C@H]3c4c(c5ccccc5n(C)c4=O)OC(C)(C)[C@H]3[C@@H]2C2CCCC2)cc(OC)c1OC,0.69,2.5,–
COc1ccc([C@H]2[C@H]3c4c(c5ccccc5[nH]c4=O)OC(C)(C)[C@H]3[C@@H]2C2CC2)cc1OCCCN1CCOCC1,0.19,3.9,–
"COc1cc(C2[C@@H](COC(C)C)C3[C@@H]2c2c(c4ccccc4[nH]c2=O)OC3(C)C)cc(OC)c1OC (single isomer, unassigned)",–,–,Activity [5]: inactive
COc1cc([C@H]2[C@H]3c4c(c5ccccc5[nH]c4=O)OC(C)(C)[C@H]3[C@@H]2C(C)C)cc(OC)c1OC,1.18,0.79,–
COc1ccc([C@H]2[C@H]3c4c(c5ccccc5[nH]c4=O)OC(C)(C)[C@H]3[C@@H]2C(C)C)cc1OCCO,0.46,0.5,–
COc1cc(OC)cc([C@@H]2[C@@H](C)[C@H]3[C@@H]2c2c(c4ccccc4[nH]c2=O)OC3(C)C)c1,0.46,3.1,–
CCOc1ccc([C@H]2[C@H]3c4c(c5ccccc5[nH]c4=O)OC(C)(C)[C@H]3[C@@H]2C(C)C)cc1OC,0.19,3.9,–
CC[C@@H]1[C@@H](c2ccc(OC)c(OC)c2)[C@H]2c3c(c4ccccc4[nH]c3=O)OC(C)(C)[C@@H]12,1.01,1.2,–
COc1ccc([C@@H]2[C@@H](C)[C@H]3[C@@H]2c2c(c4ccccc4[nH]c2=O)OC3(C)C)cc1Br,0.28,3.9,–
COc1ccc([C@H]2[C@H]3c4c(c5ccccc5[nH]c4=O)OC(C)(C)[C@H]3[C@@H]2C2CCCC2)cc1OC,0.9,0.39,–
COc1ccc([C@H]2[C@H]3c4c(c5ccccc5n(C)c4=O)OC(C)(C)[C@H]3[C@@H]2C(C)C)cc1Cl,0.53,3.1,–
CCC[C@]1(c2cc(OC)c(OC)c(OC)c2)O[C@H]2c3c(c4ccccc4[nH]c3=O)OC(C)(C)[C@H]2O1,–,–,Activity [7]: inactive
COc1ccc([C@H]2[C@H]3c4c(c5ccccc5[nH]c4=O)OC(C)(C)[C@H]3[C@@H]2C(C)C)cc1Cl,0.47,2,–
CCC[C@]1(c2ccc(OC)c(OC)c2)O[C@H]2c3c(c4ccccc4[nH]c3=O)OC(C)(C)[C@H]2O1,0.2,15.8,–
CC[C@@H]1[C@@H](c2cc(OC)c(OC)c(OC)c2)[C@H]2c3c(c4ccccc4[nH]c3=O)OC(C)(C)[C@@H]12,1.05,0.79,–
COc1ccc2[nH]c(=O)c3c(c2c1)OC(C)(C)[C@@H]1[C@H]3[C@H](c2ccc(OC)c(OC)c2)[C@H]1C(C)C,–,> 10,–
COc1ccc([C@@H]2[C@@H](C)[C@H]3[C@@H]2c2c(c4ccccc4[nH]c2=O)OC3(C)C)cc1OC,0.69,3.1,–
CCCC[C@@H]1[C@@H](c2cc(OC)c(OC)c(OC)c2)[C@H]2c3c(c4ccccc4[nH]c3=O)OC(C)(C)[C@@H]12,0.69,2,–
C[C@@H]1[C@@H](c2ccccc2)[C@H]2c3c(c4ccccc4[nH]c3=O)OC(C)(C)[C@@H]12,–,–,Activity [8]: inactive
COc1ccc([C@H]2[C@H]3c4c(c5ccccc5[nH]c4=O)OC(C)(C)[C@H]3[C@@H]2C(C)C)cc1OC(C)=O,–,> 10,–
COc1ccc([C@@H]2[C@@H](C)[C@H]3[C@@H]2c2c(c4ccccc4[nH]c2=O)OC3(C)C)c(Cl)c1OC,0.44,3.1,–
